From patent publication US20080255169A1 (priority 2004, published 2008)

Tests used:
α2β1 integrin [1] = target: α2β1 integrin (Homo sapiens, UniProt P05556+P17301); experiment: Cell adhesion assay; type: cell-based; details: read-out: EC50 in cell adhesion assay
α2β1 integrin [2] = target: α2β1 integrin (Homo sapiens, UniProt P17301); experiment: Cell adhesion assay; type: cell-based; details: concentration not given
Sequence of α2β1 integrin (Homo sapiens, UniProt P17301) (P17301 30-1181): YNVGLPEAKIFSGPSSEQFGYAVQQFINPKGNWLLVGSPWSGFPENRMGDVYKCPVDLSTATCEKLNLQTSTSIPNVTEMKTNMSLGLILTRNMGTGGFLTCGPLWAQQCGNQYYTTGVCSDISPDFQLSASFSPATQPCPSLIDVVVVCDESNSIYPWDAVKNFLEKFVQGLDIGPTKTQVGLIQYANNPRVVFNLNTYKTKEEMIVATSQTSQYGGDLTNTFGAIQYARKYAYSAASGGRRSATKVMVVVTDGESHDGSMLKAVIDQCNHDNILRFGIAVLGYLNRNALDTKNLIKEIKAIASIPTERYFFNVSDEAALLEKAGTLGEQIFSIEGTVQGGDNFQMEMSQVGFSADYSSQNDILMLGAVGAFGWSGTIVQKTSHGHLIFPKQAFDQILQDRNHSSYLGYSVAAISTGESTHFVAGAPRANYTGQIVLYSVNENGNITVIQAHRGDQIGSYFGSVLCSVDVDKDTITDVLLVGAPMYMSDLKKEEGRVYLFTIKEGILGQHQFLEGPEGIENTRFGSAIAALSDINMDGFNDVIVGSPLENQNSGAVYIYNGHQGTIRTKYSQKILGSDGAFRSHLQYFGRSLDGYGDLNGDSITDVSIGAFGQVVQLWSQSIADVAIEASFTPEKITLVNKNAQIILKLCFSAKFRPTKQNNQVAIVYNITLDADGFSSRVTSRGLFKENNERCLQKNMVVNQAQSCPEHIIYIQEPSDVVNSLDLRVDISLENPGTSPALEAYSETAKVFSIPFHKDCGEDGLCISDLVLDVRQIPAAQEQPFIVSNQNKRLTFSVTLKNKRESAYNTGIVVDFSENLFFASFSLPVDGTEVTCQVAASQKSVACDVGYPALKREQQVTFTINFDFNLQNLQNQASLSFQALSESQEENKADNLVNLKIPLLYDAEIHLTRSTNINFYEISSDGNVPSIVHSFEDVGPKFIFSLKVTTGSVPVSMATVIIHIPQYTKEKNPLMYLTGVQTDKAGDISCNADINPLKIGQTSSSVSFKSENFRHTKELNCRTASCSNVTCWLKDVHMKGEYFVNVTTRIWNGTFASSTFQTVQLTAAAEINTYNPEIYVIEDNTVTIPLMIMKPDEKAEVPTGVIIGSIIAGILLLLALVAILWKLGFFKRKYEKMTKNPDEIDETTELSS
Sequence of α2β1 integrin (Homo sapiens, UniProt P17301) (P05556 21-798 partner): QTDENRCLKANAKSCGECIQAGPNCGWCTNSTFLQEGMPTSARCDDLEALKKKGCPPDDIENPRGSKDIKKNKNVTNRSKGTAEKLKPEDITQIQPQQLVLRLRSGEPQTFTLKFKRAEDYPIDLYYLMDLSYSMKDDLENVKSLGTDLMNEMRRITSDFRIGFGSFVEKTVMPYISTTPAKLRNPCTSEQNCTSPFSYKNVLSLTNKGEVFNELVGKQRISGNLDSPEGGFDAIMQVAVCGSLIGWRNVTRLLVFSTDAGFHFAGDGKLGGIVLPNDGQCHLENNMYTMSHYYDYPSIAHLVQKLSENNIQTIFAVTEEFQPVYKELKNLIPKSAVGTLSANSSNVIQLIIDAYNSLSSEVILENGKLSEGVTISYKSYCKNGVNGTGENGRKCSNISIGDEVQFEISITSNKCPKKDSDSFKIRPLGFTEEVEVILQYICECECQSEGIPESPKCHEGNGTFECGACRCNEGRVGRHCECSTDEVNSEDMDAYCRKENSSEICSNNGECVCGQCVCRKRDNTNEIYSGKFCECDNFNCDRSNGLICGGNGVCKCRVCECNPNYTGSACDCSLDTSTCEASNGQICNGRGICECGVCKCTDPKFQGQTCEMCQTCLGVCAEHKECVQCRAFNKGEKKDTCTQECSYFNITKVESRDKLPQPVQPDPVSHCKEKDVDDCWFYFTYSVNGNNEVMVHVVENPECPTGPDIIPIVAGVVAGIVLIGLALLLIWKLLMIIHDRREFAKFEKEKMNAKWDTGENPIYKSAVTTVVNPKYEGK

Sequence of α2β1 integrin (Homo sapiens, UniProt P05556+P17301) (P17301 30-1181): as the sequence (P17301 30-1181) above
Sequence of α2β1 integrin (Homo sapiens, UniProt P05556+P17301) (P05556 21-798 partner): as the sequence (P05556 21-798 partner) above

EC50 (α2β1 integrin [1]): 13 µM
Emax in cell adhesion assay (α2β1 integrin [2]): 65%
melting point: 43 °C
SMILES: COc1ccc(-c2cccc(S(=O)(=O)Nc3ccc(N(C)C)cc3)c2)cc1OC [Compound 102, 3′,4′-dimethoxy-biphenyl-3-sulphonic acid (4-dimethylamino-phenyl)-amide]
